Among the data in ChEMBL document CHEMBL1140459, “Synthesis of poison-frog alkaloids 233A, 235U, and 251AA and their inhibitory effects on neuronal nicotinic acetylcholine receptors” (Bioorg Med Chem Lett, 2007) are IC50 values, retold here.

Usually IC50 stands for the concentration needed to halve the response being measured.

Assay [1] addresses Neuronal acetylcholine receptor subunit alpha-7 (Homo sapiens, UniProt P36544). The experiment in a line: Inhibition of alpha-7 nAchR expressed in Xenopus laevis oocytes assessed as acetylcholine-induced current by voltage-clamp method. The assay is classed as functional, cell-based, Oocyte.
In assay [2] the target is Neuronal acetylcholine receptor; alpha4/beta2 (Homo sapiens, UniProt P17787+P43681). Nature of the assay: Inhibition of alpha4beta2 nAchR expressed in Xenopus laevis oocytes assessed as acetylcholine-induced current by voltage-clamp method. The assay is classed as cell-based, Oocyte.
Neuronal acetylcholine receptor; alpha4/beta2, sequence (P17787 whole entry): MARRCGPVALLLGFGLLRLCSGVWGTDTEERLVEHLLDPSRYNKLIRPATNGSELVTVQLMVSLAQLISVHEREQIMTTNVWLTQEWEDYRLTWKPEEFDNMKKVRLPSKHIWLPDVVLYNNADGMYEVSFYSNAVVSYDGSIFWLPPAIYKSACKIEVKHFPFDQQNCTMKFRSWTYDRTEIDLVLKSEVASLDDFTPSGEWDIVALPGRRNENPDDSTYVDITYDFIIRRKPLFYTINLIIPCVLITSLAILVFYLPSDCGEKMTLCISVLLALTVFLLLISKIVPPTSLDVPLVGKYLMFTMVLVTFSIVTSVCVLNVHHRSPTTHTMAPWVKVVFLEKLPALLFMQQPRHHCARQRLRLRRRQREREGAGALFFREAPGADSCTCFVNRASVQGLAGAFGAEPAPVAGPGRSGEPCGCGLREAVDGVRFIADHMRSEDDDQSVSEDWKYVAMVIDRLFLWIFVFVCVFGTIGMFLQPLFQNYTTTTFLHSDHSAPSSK
Neuronal acetylcholine receptor; alpha4/beta2, sequence (P43681 whole entry): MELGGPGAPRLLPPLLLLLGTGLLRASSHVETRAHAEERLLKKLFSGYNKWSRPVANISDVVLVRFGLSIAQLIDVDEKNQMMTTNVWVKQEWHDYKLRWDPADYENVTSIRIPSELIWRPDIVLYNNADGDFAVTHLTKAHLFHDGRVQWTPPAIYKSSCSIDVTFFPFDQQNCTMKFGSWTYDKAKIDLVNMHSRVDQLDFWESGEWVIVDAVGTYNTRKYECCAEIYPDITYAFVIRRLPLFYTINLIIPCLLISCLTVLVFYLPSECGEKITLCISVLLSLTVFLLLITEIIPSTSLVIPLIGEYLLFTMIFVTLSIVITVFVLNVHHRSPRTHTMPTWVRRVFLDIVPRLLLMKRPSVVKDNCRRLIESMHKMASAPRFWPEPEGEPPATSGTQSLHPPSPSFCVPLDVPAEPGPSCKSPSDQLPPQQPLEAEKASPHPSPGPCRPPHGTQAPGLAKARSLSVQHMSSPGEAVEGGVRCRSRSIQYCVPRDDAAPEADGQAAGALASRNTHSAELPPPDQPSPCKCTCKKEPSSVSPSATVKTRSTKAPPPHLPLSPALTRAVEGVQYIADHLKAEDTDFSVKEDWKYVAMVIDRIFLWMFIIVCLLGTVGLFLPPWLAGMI

Neuronal acetylcholine receptor subunit alpha-7, sequence (P36544 whole entry): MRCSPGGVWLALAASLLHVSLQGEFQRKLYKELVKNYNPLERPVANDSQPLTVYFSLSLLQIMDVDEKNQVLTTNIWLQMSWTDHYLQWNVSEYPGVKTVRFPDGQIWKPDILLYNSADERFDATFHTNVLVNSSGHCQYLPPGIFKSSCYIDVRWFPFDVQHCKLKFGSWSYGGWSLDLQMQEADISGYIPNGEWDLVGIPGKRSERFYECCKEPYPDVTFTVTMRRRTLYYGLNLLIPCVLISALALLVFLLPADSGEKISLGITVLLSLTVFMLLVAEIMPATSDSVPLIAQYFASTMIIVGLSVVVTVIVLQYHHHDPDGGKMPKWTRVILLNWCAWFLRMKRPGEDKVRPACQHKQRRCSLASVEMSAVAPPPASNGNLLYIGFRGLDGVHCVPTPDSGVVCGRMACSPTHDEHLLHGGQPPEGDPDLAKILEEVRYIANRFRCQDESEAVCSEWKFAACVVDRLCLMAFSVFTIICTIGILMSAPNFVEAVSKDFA

For the compound `C#CCCC[C@@H]1CC[C@@H](CC)[C@@H]2CCCCN12`, the 50% inhibitory concentration (IC50) is 7.4 µM in assay [1] and 5.1 µM in assay [2].

`C=CCCC[C@@H]1CC[C@@H](CC)[C@@H]2CCCCN12`: the IC50 in assay [1] stood at 5.2 µM; in assay [2], 3.5 µM.

With `CCCCCC[C@@H]1CC[C@@H](CC)[C@@H]2CCCCN12`, the IC50 came out at 4.1 µM in assay [1] and 2.5 µM in assay [2].
